Source: PMC11111408, “Concurrent inhibition of oncogenic and wild-type RAS-GTP for cancer therapy” (Nature, 2024)

Tested on: PRISM DNA-barcoded human tumour cell lines
Experiment: PRISM pooled cell viability assay;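 for PRISM AUC: 8 threefold dilutions from 10 µM with 5 days of exposure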
Assay type: cell-based
Parameters: AUC (PRISM viability) / AUC (PRISM): unit not given beside the values
Conditions: for AUC (PRISM viability): WT; for PRISM AUC: KRAS MUT
Description: Cells were then lysed in TCL mRNA lysis buffer, and then PCR with reverse transcription was performed. Detection of the barcodes and univariate and multivariate analysis was then performed as previously described. Data analysis is described in the Supplementary Methods. Up-to-date code for our analysis is at the github link: https://github.com/cmap/dockerized_mts.
For every gene with non-silent mutations in at least four cell-lines, we compared the AUC values between cells with and without those mutations using a t-test. This analysis was carried out for: (i) the full dataset; (ii) excluding cell lines with non-silent KRAS mutations; and (iii) excluding cell lines that have either KRAS or NRAS non-silent mutations.

CCn1c(-c2cc(N3CCN(C4CC4)CC3)cnc2[C@H](C)OC)c2c3cc(ccc31)-c1csc(n1)C[C@H](NC(=O)[C@H]1[C@@H]3COC[C@@H]31)C(=O)N1CCC[C@H](N1)C(=O)OCC(C)(C)C2 [RMC-7977]
AUC (PRISM viability) (MPP89_PLEURA): 0.9969 | AUC (PRISM viability) (MSTO211H_PLEURA): 0.3796 | AUC (PRISM viability) (NALM6_HAEMATOPOIETIC_AND_LYMPHOID_TISSUE): 0.7052 | AUC (PRISM viability) (NB1_AUTONOMIC_GANGLIA): 0.4921 | PRISM AUC (NCIH23_LUNG): 0.451 | AUC (PRISM viability) (NCIH28_PLEURA): 0.6741 | AUC (PRISM viability) (NCIH82_LUNG): 0.581 | AUC (PRISM viability) (NCIH196_LUNG): 0.9033 | AUC (PRISM viability) (NCIH226_LUNG): 0.6197 | AUC (PRISM viability) (NCIH292_LUNG): 0.4596 | AUC (PRISM viability) (NCIH322_LUNG): 0.4865 | PRISM AUC (NCIH358_LUNG): 0.1803 | PRISM AUC (NCIH441_LUNG): 0.3007 | AUC (PRISM viability) (NCIH446_LUNG): 0.8555 | AUC (PRISM viability) (NCIH508_LARGE_INTESTINE): 0.3599 | AUC (PRISM viability) (NCIH520_LUNG): 0.7662 | AUC (PRISM viability) (NCIH522_LUNG): 0.759 | AUC (PRISM viability) (NCIH524_LUNG): 0.7662 | AUC (PRISM viability) (NCIH596_LUNG): 0.5305 | PRISM AUC (NCIH647_LUNG): 0.7239 | AUC (PRISM viability) (NCIH661_LUNG): 0.7122 | PRISM AUC (NCIH727_LUNG): 0.5024 | PRISM AUC (NCIH747_LARGE_INTESTINE): 0.2108 | AUC (PRISM viability) (NCIH838_LUNG): 0.8166 | AUC (PRISM viability) (NCIH841_LUNG): 0.7846 | AUC (PRISM viability) (NCIH1048_LUNG): 0.6373 | AUC (PRISM viability) (NCIH1092_LUNG): 0.3222 | AUC (PRISM viability) (NCIH1299_LUNG): 0.4354 | PRISM AUC (NCIH1339_LUNG): 0.4553 | AUC (PRISM viability) (NCIH1341_LUNG): 0.5477 | PRISM AUC (NCIH1355_LUNG): 0.4521 | PRISM AUC (NCIH1373_LUNG): 0.3791 | AUC (PRISM viability) (NCIH1435_LUNG): 0.8637 | AUC (PRISM viability) (NCIH1437_LUNG): 0.5969 | AUC (PRISM viability) (NCIH1563_LUNG): 0.6189 | AUC (PRISM viability) (NCIH1568_LUNG): 0.6734 | AUC (PRISM viability) (NCIH1581_LUNG): 0.9998 | AUC (PRISM viability) (NCIH1648_LUNG): 0.2199 | AUC (PRISM viability) (NCIH1650_LUNG): 0.6245 | AUC (PRISM viability) (NCIH1651_LUNG): 0.8871 | AUC (PRISM viability) (NCIH1693_LUNG): 0.8183 | AUC (PRISM viability) (NCIH1694_LUNG): 0.5791 | AUC (PRISM viability) (NCIH1703_LUNG): 0.6825 | PRISM AUC (NCIH1792_LUNG): 0.2139 | AUC (PRISM viability) (NCIH1793_LUNG): 0.6312 | AUC (PRISM viability) (NCIH1838_LUNG): 0.5855 | AUC (PRISM viability) (NCIH1915_LUNG): 0.641 | PRISM AUC (NCIH1944_LUNG): 0.5331 | AUC (PRISM viability) (NCIH1975_LUNG): 0.5382 | AUC (PRISM viability) (NCIH2023_LUNG): 0.5354 | AUC (PRISM viability) (NCIH2087_LUNG): 0.3287 | AUC (PRISM viability) (NCIH2110_LUNG): 0.5875 | PRISM AUC (NCIH2122_LUNG): 0.1883 | AUC (PRISM viability) (NCIH2126_LUNG): 0.6292 | AUC (PRISM viability) (NCIH2170_LUNG): 0.6244 | AUC (PRISM viability) (NCIH2171_LUNG): 0.8542 | AUC (PRISM viability) (NCIH2172_LUNG): 0.765 | AUC (PRISM viability) (NCIH2228_LUNG): 0.4232 | PRISM AUC (NCIH2444_LUNG): 0.2818 | AUC (PRISM viability) (NCIH2452_PLEURA): 1 | AUC (PRISM viability) (NCIN87_STOMACH): 0.7465 | AUC (PRISM viability) (NCO2_HAEMATOPOIETIC_AND_LYMPHOID_TISSUE): 0.625 | AUC (PRISM viability) (NIHOVCAR3_OVARY): 0.7506 | PRISM AUC (NOMO1_HAEMATOPOIETIC_AND_LYMPHOID_TISSUE): 0.4639 | AUC (PRISM viability) (NUGC3_STOMACH): 0.3156 | AUC (PRISM viability) (NUGC4_STOMACH): 0.304 | AUC (PRISM viability) (OAW42_OVARY): 0.7122 | AUC (PRISM viability) (OC314_OVARY): 0.7084 | AUC (PRISM viability) (OC316_OVARY): 0.6527 | AUC (PRISM viability) (OCIAML2_HAEMATOPOIETIC_AND_LYMPHOID_TISSUE): 0.8145 | AUC (PRISM viability) (OCIAML3_HAEMATOPOIETIC_AND_LYMPHOID_TISSUE): 0.162 | AUC (PRISM viability) (OCILY3_HAEMATOPOIETIC_AND_LYMPHOID_TISSUE): 0.7702 | AUC (PRISM viability) (OCIM1_HAEMATOPOIETIC_AND_LYMPHOID_TISSUE): 0.5554 | AUC (PRISM viability) (OE19_OESOPHAGUS): 0.4503 | AUC (PRISM viability) (OE21_OESOPHAGUS): 0.4077 | AUC (PRISM viability) (OE33_OESOPHAGUS): 0.4516 | AUC (PRISM viability) (ONCODG1_OVARY): 0.8342 | AUC (PRISM viability) (ONS76_CENTRAL_NERVOUS_SYSTEM): 0.1792 | AUC (PRISM viability) (OSRC2_KIDNEY): 0.7371 | AUC (PRISM viability) (OUMS23_LARGE_INTESTINE): 0.9107 | PRISM AUC (OV7_OVARY): 0.3327 | PRISM AUC (OV56_OVARY): 0.6812 | AUC (PRISM viability) (OVISE_OVARY): 0.7216 | AUC (PRISM viability) (OVKATE_OVARY): 0.7188 | AUC (PRISM viability) (OVTOKO_OVARY): 0.7297 | AUC (PRISM viability) (P12ICHIKAWA_HAEMATOPOIETIC_AND_LYMPHOID_TISSUE): 0.1917 | PRISM AUC (PANC1_PANCREAS): 0.7301 | PRISM AUC (PANC0203_PANCREAS): 0.1549 | PRISM AUC (PANC0327_PANCREAS): 0.3885 | PRISM AUC (PANC0403_PANCREAS): 0.1969 | PRISM AUC (PANC0504_PANCREAS): 0.2677 | PRISM AUC (PANC0813_PANCREAS): 0.6012 | PRISM AUC (PANC1005_PANCREAS): 0.492 | PRISM AUC (PATU8902_PANCREAS): 0.2883 | PRISM AUC (PATU8988S_PANCREAS): 0.2608 | PRISM AUC (PATU8988T_PANCREAS): 0.5033 | AUC (PRISM viability) (PC3_PROSTATE): 0.7599 | AUC (PRISM viability) (PC14_LUNG): 0.4618 | AUC (PRISM viability) (PECAPJ15_UPPER_AERODIGESTIVE_TRACT): 0.4843 | AUC (PRISM viability) (PECAPJ41CLONED2_UPPER_AERODIGESTIVE_TRACT): 0.3318 | AUC (PRISM viability) (PECAPJ49_UPPER_AERODIGESTIVE_TRACT): 0.2883 | AUC (PRISM viability) (PF382_HAEMATOPOIETIC_AND_LYMPHOID_TISSUE): 0.3397 | PRISM AUC (PK1_PANCREAS): 0.3834 | PRISM AUC (PK45H_PANCREAS): 0.5023 | PRISM AUC (PK59_PANCREAS): 0.2749 | AUC (PRISM viability) (PLCPRF5_LIVER): 0.7216 | PRISM AUC (PSN1_PANCREAS): 0.12 | PRISM AUC (QGP1_PANCREAS): 0.3907 | AUC (PRISM viability) (RCC10RGB_KIDNEY): 0.7484 | PRISM AUC (RCM1_LARGE_INTESTINE): 0.1259 | AUC (PRISM viability) (RDES_BONE): 0.7616 | AUC (PRISM viability) (RD_SOFT_TISSUE): 0.207 | AUC (PRISM viability) (RERFGC1B_STOMACH): 0.5427 | PRISM AUC (RERFLCAD2_LUNG): 0.4067 | AUC (PRISM viability) (RERFLCAI_LUNG): 0.6094 | AUC (PRISM viability) (RERFLCKJ_LUNG): 0.8949 | AUC (PRISM viability) (RERFLCMS_LUNG): 0.7953 | AUC (PRISM viability) (RH30_SOFT_TISSUE): 0.6971 | AUC (PRISM viability) (RI1_HAEMATOPOIETIC_AND_LYMPHOID_TISSUE): 0.7681 | PRISM AUC (RKN_SOFT_TISSUE): 0.1266 | AUC (PRISM viability) (RKO_LARGE_INTESTINE): 0.9515 | AUC (PRISM viability) (RL952_ENDOMETRIUM): 0.342 | AUC (PRISM viability) (RL_HAEMATOPOIETIC_AND_LYMPHOID_TISSUE): 0.7851 | AUC (PRISM viability) (RMGI_OVARY): 0.5297 | AUC (PRISM viability) (RMUGS_OVARY): 0.8312 | AUC (PRISM viability) (RPMI7951_SKIN): 0.9756 | AUC (PRISM viability) (RPMI8402_HAEMATOPOIETIC_AND_LYMPHOID_TISSUE): 0.7828 | AUC (PRISM viability) (RT4_URINARY_TRACT): 0.5133 | AUC (PRISM viability) (RT112_URINARY_TRACT): 0.1516 | AUC (PRISM viability) (RVH421_SKIN): 0.8566 | AUC (PRISM viability) (SBC5_LUNG): 0.6474 | AUC (PRISM viability) (SCABER_URINARY_TRACT): 0.3752 | AUC (PRISM viability) (SCC9_UPPER_AERODIGESTIVE_TRACT): 0.5257
